Reference: patent publication US20090299066A1, “TRIAZOLONE DERIVATIVES AS MMP INHIBITORS FOR THE TREATMENT OF ASTHMA AND COPD” (priority 2004, published 2009)

Columns and labels:
Assay type in all cases: biochemical
Human MMP8 = target: T1, Human MMP8 (Homo sapiens, UniProt P22894); assay: Isolated enzyme assay, MMP8
T1 construct: made in house
Source text: (§1) A protocol for testing against other matrix metalloproteinases, including MMP9, using expressed and purified pro MMP is described, for instance, by C. Graham Knight et al., (1992) FEBS Lett. 296(3):263-266.

Human MMP9 = target: T2, Human MMP9 (Homo sapiens, UniProt P14780); assay: Isolated enzyme assay, MMP9
T2 construct: made in house
T2 sequence (P14780 94-707): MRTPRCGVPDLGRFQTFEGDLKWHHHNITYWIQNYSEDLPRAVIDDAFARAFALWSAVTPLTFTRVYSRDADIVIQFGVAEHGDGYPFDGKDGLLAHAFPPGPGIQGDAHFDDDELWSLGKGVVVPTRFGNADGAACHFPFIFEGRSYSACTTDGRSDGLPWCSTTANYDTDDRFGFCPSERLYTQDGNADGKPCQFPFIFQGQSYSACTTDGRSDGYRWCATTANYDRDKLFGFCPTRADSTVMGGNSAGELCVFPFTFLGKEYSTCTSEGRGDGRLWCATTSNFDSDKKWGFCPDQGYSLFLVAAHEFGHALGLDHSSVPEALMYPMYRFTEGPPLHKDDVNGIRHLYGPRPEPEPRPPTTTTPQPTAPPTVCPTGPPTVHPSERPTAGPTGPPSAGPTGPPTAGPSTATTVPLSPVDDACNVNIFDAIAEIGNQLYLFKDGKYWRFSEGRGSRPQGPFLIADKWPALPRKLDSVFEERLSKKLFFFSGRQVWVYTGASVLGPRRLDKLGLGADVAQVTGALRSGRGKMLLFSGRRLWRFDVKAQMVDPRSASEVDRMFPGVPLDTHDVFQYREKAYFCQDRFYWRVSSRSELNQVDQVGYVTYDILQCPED
Source text: as §1

Human MMP12 = target: T3, Human MMP12 (Homo sapiens, UniProt P39900); assay: Isolated enzyme assay, MMP12 catalytic domain, fluorogenic substrate; settings: recombinant human MMP12 catalytic domain
T3 construct: Recombinant human MMP12 catalytic domain may be expressed and purified as described by Parkar A. A. et al; made in house
T3 sequence (P39900 106-263 limits assumed): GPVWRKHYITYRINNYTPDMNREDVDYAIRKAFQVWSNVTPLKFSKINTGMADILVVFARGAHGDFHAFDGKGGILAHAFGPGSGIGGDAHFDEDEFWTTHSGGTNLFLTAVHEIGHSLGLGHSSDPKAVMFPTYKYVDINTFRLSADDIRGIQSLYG
Experimental: Recombinant human MMP12 catalytic domain may be expressed and purified as described by Parkar A. A. et al, (2000), Protein Expression and Purification, 20:152. The purified enzyme can be used to monitor inhibitors of activity as follows: MMP12 (50 ng/ml final concentration) is incubated for 60 minutes at room temperature with the synthetic substrate Mac-Pro-Cha-Gly-Nva-His-Ala-Dpa-NH2 in assay buffer (0.1M “Tris-HCl” (trade mark) buffer, pH 7.3 containing 0.1M NaCl, 20 mM CaCl2, 0.020 mM ZnCl and 0.05% (w/v) “Brij 35” (trade mark) detergent) in the presence (5 concentrations) or absence of inhibitors. Activity is determined by measuring the fluorescence at λex 320 nm and λem 405 nm. Percent inhibition is calculated as follows: % Inhibition is equal to the […].

Human MMP14 = target: T4, Human MMP14 (Homo sapiens, UniProt P50281); assay: Isolated enzyme assay, MMP14
T4 construct: made in house
Source text: as §1

Human MMP2 = target: T5, Human MMP2 (Homo sapiens, UniProt P08253); assay: Isolated enzyme assay, MMP2
T5 construct: made in house
T5 sequence (P08253 110-660): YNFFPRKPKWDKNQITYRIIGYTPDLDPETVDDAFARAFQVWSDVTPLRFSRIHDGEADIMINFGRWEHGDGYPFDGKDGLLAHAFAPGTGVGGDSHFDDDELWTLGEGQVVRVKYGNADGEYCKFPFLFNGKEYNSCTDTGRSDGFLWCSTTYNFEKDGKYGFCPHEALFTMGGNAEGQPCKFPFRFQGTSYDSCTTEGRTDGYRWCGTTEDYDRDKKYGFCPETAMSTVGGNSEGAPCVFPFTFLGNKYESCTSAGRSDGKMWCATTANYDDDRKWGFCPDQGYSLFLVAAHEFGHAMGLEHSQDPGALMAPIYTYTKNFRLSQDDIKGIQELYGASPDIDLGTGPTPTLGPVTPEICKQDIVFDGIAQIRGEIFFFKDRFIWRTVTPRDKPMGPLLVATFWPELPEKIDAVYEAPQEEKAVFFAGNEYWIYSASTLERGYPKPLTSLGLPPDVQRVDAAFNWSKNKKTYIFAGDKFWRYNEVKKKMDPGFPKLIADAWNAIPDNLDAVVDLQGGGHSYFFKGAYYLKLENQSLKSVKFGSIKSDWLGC
Source text: as §1

Human MMP19 = target: T6, Human MMP19 (Homo sapiens, UniProt Q99542); assay: Isolated enzyme assay, MMP19
T6 construct: made in house
T6 sequence (Q99542 98-508): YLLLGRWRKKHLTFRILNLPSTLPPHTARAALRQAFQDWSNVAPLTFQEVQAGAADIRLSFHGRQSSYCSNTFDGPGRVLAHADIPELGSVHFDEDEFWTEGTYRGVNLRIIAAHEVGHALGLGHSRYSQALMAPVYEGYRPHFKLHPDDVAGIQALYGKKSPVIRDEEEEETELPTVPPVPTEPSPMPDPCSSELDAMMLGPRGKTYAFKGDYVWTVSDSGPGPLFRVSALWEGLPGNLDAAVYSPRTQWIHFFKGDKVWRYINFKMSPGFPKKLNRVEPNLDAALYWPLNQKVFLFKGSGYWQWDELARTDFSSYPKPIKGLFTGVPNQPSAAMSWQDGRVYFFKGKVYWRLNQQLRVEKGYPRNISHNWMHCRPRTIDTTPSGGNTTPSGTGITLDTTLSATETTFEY
Source text: as §1

T1 sequence (P22894 101-467): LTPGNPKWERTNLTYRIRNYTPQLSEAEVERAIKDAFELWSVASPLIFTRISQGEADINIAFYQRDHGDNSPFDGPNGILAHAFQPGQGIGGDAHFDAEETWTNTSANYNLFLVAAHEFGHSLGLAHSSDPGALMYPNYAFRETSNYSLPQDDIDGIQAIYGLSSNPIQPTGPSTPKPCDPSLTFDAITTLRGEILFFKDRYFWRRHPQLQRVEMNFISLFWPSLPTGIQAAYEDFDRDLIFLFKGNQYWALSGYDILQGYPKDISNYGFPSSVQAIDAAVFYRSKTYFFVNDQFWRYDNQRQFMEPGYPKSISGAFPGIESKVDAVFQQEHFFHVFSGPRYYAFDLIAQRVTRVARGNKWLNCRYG

IC50 (Human MMP8) [nM] | IC50 (Human MMP9) [nM] | IC50 (Human MMP12) [nM] | IC50 (Human MMP14) [nM] | IC50 (Human MMP2) [nM] | IC50 (Human MMP19) [nM] | SMILES
243 | 318 | 65 | 6660 | 1010 |  | O=c1[nH]nc(CCS(=O)(=O)N2CCC(Oc3ccc(Cl)cn3)CC2)[nH]1 [Example 2, 5-[2-({4-[(5-Chloropyridin-2-yl)oxy]piperidin-1-yl}sulfonyl)ethyl]-2,4-dihydro-3H-1,2,4-triazol-3-one]
31 | 414 | 18 | 1750 | 142 | 64 | O=c1[nH]nc(CS(=O)(=O)N2CCN(c3ccc(Cl)cc3)CC2)[nH]1 [Example 4, 5-({[4-(4-Chlorophenyl)piperazin-1-yl]sulfonyl}methyl)-2,4-dihydro-3H-1,2,4-triazol-3-one]
284 | 5.7 | 2.4 | 6850 | 263 | 4300 | O=c1[nH]nc(CS(=O)(=O)N2CC=C(C#Cc3cnc(C(F)(F)F)nc3)CC2)[nH]1 [Example 6, 5-({[4-{[2-(Trifluoromethyl)pyrimidin-5-yl]ethynyl}-3,6-dihydropyridin-1(2H)-yl]sulfonyl}methyl)-2,4-dihydro-3H-1,2,4-triazol-3-one]
